Laboratory results taken from patent publication US9073945B2, “Alpha-IIb-beta-3 inhibitors and uses thereof” (THE ROCKEFELLER UNIVERSITY, priority 2006, dated 2015).
Positions of bridges follow the written chain, without caps; N, C: chain ends. Non-standard residues stand in square brackets, D forms with d. Residues, ends and D or L forms follow the SMILES beside them. hArg = N=C(N)NCCCC[C@H](N)C(=O)O; Mpa = O=C(O)CCS

What was measured:
[1] = system: platelets in citrated PRP; assay: Platelet aggregation in 96-well plates (secondary screen); type: cell-based, human; settings: induced by 5 μM ADP; 16.6 μM compound
Procedure: Platelet Preparation from Peripheral Blood. After informed consent is obtained from healthy human donors who have not taken any medication known to inhibit platelet function for at least 7 days, peripheral venous blood is collected via a 19-gauge butterfly needle into tubes containing either a 10% volume of sodium citrate (3.8%), or a 15% volume of Acid-Citrate-Dextrose (ACD-A, 74.8 mM sodium citrate, 38 mM citric acid, 124 mM dextrose). Platelet-rich plasma (PRP) is prepared by centrifugation at 650 g for 4 minutes at 22° C. and is gently removed with a plastic pipette. Platelet-poor plasma (PPP) is prepared by further centrifugation of the remaining blood at 3000 g for 10 minutes at 22° C. Washed platelets (WP) are prepared by treating ACD-anticoagulated PRP with 1 μM PGE1, adding 0.10 vol ACD, and centrifuge at 1200 g for 8 min at 22° C. […] Platelet counts are determined with the automated particle counter (ADVIA 120 hematological analyzer Bayer).
Platelet Aggregation in 96-well Plates. […] A 66.6 μl sample of citrated PRP from volunteer blood donors is added to compound-containing wells, and plates are allowed to equilibrate to 37° C. in the plate reader (SpectraMax) for 10 minutes. […] Absorbance is measured at 563 nm every 10 seconds with shaking for 3 s between reads for 8 minutes. Percent aggregation is calculated as (AbsPRP−Abssample)/(AbsPRP−AbsPPP).

platelets [2] = assay: Platelet aggregation in aggregometer; type: cell-based, human; settings: for IC50: Homo sapiens, Platelet
Procedure: Platelet Preparation from Peripheral Blood. After informed consent is obtained from healthy human donors who have not taken any medication known to inhibit platelet function for at least 7 days, peripheral venous blood is collected via a 19-gauge butterfly needle into tubes containing either a 10% volume of sodium citrate (3.8%), or a 15% volume of Acid-Citrate-Dextrose (ACD-A, 74.8 mM sodium citrate, 38 mM citric acid, 124 mM dextrose). Platelet-rich plasma (PRP) is prepared by centrifugation at 650 g for 4 minutes at 22° C. and is gently removed with a plastic pipette. Platelet-poor plasma (PPP) is prepared by further centrifugation of the remaining blood at 3000 g for 10 minutes at 22° C. Washed platelets (WP) are prepared by treating ACD-anticoagulated PRP with 1 μM PGE1, adding 0.10 vol ACD, and centrifuge at 1200 g for 8 min at 22° C. The platelet pellet is resuspended in HBMT. Platelet counts are determined with the automated particle counter (ADVIA 120 hematological analyzer Bayer).
Platelet Aggregation in Aggregometer. Citrated PRP is incubated with compounds or controls for 15 min 37° C. in 300-500 μl vols in glass aggregometer tubes. Agonists are added after 30 s equilibration in the aggregometer (Kowa) and light transmittance is measured for 8 min. Agonists include ADP, collagen (native type 1 collagen fibrils), restocetin, arachidonic acid, and thrombin receptor activating peptide [TRAP (SFLLRN)].

[3] = system: platelets in citrated whole blood; assay: Platelet adhesion under shear stress (cone and plate); type: cell-based, human; settings: preferred Compound 50 μM, tirofiban 10 μM; 1800 s^−1; n=3
Procedure: Platelet Adhesion Under Shear Stress. A cone and plate system (Diamed, Cressier, Switzerland) is used to assess the effect of the Compounds on platelet deposition under shear stress. 0.25 ml of citrated whole blood is incubated with nothing, DMSO (0.5%), the Compounds (50 μM), or tirofiban (10 μM) for 15 min at 22° C. and placed in polystyrene wells (16 mm diameter, Nunc). A constant uniform shear force of 1800 s^−1 was applied across the well using a teflon cone for 2 min at 22° C. Wells are washed with buffer, fixed with 1% paraformaldehyde, stained with Wright's Stain (Sigma-Aldrich), and analyzed for platelet adhesion using a 20× objective in an inverted microscope (IX51, Olympus, Center Valley, Pa.). Platelet adhesion is assessed by measuring the area occupied by platelets in each of four uniformly selected viewing areas in duplicate wells using image analysis software (SlideBook, Intelligent Imaging Innovations, Denver, Colo.).

αIIbβ3 = biological target: T1, αIIbβ3 (Homo sapiens, UniProt P05106+P08514); assay: LIBS-specific mAb binding to resting platelets (flow cytometry); type: cell-based; settings: compound 100 μM
T1 construct: endogenous in cells; host or cells: washed resting platelets from platelet-rich plasma
T1 sequence (P08514 32-887 limits assumed): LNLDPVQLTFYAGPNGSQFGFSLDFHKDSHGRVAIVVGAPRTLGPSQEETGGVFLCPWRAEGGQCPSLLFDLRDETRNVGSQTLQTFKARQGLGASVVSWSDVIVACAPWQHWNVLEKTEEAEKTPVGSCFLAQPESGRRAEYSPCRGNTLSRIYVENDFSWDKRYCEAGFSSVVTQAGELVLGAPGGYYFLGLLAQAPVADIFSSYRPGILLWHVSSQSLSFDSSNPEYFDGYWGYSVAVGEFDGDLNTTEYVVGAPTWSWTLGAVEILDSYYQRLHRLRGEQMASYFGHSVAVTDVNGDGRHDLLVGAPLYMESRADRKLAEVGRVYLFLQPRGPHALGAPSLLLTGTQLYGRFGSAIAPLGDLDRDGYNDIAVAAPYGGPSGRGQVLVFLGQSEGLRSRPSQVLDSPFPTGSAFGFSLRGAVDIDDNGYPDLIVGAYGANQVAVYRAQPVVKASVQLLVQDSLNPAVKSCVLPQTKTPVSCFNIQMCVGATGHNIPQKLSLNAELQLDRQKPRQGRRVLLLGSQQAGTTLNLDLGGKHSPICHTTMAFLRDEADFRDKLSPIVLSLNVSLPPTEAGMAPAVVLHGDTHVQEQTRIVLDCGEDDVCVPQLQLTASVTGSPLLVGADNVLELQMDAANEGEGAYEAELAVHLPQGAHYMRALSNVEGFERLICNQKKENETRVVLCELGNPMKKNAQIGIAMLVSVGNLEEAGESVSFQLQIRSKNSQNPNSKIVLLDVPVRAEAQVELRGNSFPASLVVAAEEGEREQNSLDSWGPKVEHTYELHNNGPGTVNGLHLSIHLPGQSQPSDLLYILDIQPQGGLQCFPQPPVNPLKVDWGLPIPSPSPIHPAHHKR
T1 sequence (P08514 891-1039 partner limits assumed): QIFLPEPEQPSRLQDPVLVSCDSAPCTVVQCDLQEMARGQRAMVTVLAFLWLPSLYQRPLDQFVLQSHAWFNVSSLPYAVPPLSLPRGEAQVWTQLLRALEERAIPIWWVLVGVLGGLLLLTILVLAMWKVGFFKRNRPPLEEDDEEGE
T1 sequence (P05106 27-788): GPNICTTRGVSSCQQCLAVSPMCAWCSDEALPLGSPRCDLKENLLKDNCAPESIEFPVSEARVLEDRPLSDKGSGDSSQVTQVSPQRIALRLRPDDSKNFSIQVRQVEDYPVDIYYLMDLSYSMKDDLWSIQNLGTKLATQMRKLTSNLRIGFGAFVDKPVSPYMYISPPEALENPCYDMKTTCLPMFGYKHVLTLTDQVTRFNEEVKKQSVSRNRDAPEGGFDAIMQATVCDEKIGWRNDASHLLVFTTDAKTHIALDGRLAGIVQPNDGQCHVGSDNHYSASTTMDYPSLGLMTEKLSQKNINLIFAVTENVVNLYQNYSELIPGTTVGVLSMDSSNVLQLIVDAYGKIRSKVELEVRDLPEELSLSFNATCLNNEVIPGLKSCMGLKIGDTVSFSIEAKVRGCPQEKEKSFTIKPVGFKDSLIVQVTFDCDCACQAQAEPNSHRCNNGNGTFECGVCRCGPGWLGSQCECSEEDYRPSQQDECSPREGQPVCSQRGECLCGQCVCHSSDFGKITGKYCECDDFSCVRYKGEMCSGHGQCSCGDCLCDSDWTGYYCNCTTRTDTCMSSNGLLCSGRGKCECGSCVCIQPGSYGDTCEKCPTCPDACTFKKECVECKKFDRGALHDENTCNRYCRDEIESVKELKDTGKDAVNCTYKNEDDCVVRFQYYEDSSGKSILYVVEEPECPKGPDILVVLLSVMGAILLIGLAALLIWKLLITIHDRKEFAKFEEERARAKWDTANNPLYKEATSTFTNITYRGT
Procedure: mAb Binding. PRP anticoagulated with ACD is centrifuged at 1200 g for 8 min and is resuspended in HBMT containing 2 mM Ca^2+, 1 mmMg^2+. Platelet count is adjusted to 250,000/μl. Platelets are incubated with the Compounds (100 μM), tirofiban (100 μM), EDTA (10 mM), or 10E5 (10 μg/ml) for 15 min, at 37° C. Samples are incubated with Fluorescently-labeled monoclonal antibodies (PMI-1, LIBS-1, AP5, 7H2, 7E3, or 10E5; Alexa-488-conjugated, Invitrogen) at 20 μl, 5 μg/ml final concentration for 30 min at room temperature in the dark before diluting 1:10 for analysis on a FACSCalibur flow cytometer (Becton Dickson). Antibody binding is reported as the geometric mean fluorescence intensity; nonspecific binding is determined by adding a 50-fold excess of unlabeled antibody before adding labeled antibody.

platelets [4] = assay: Fluorescent fibrinogen binding to platelets; type: cell-based; settings: Homo sapiens, Platelet; AP5 60 μg/ml; read-out: IC50, fibrinogen binding to platelets induced by activating LIBS mAb AP5
Procedure: (§1) Fluorescent Fibrinogen Binding. Washed platelets at 250,000/μl or αIIbβ3-expressing HEK293 cells at 10×10^6/ml in HBMT with 2 mM Ca^2+/1 mM Mg^2+ are incubated with compounds or controls and 200 μg/ml fluorescent fibrinogen (Invitrogen) with or without 60 μg/ml of the activating mAb AP5 for 30 min at 22° C. in the dark. Unbound fibrinogen is removed by centrifugation at 1800 rpm for 3 min and the platelets are resuspended in HBMT before FACS analysis.

[5] = biological target: T2, αIIbβ3-expressing HEK293 cells (Homo sapiens, UniProt P05106+P08514); assay: Fluorescent fibrinogen binding to HEK293 cells; type: cell-based; settings: AP5 60 μg/ml; n=3; read-out: IC50, AP5-induced fibrinogen binding to HEK293 cells
T2 construct: expressed in transfected cells; host or cells: HEK293
T2 sequence (P08514 32-887 limits assumed): as the sequence (P08514 32-887 limits assumed) above
T2 sequence (P08514 891-1039 partner limits assumed): as the sequence (P08514 891-1039 partner limits assumed) above
T2 sequence (P05106 27-788): as the sequence (P05106 27-788) above
Procedure: as §1

purified αIIbβ3 [6] = biological target: T3, purified αIIbβ3 (Homo sapiens, UniProt P05106+P08514); assay: Fibrinogen binding to purified αIIbβ3; settings: for effect of activating mAb AP5 on fibrinogen binding to purified αIIbβ3 in the presence of the substance: AP5 60 μg/ml
T3 construct: purchased Enzyme Research Laboratories, South Bend, Ind
T3 sequence (P08514 32-887 limits assumed): as the sequence (P08514 32-887 limits assumed) above
T3 sequence (P08514 891-1039 partner limits assumed): as the sequence (P08514 891-1039 partner limits assumed) above
T3 sequence (P05106 27-788): as the sequence (P05106 27-788) above
Procedure: (§2) Fibrinogen Binding to Purified αIIbβ3. The anti-β3 mAb 7H2 (10 μg/ml) is adsorbed to polystyrene microtiter plate wells overnight at 4° C., and wells are then blocked with 3.5% BSA for 1 h at 22° C. Purified αIIbβ3 (Enzyme Research Laboratories, South Bend, Ind.) is diluted in buffer A (50 mM Tris/HCl, 100 mM NaCl, 1 mM CaCl2, 1 mM MgCl2, 1% BSA, 0.0035% Triton X-100) to 10 μg/ml, and is allowed to adhere to wells coated with mAb 7H2 for 2 h at 37° C. Wells are then washed 3 times with buffer A. Fibrinogen, prepared in buffer A (20 μg/ml) in the presence or absence of mAb AP5 (60 μg/ml), is incubated in plate wells for 2 h at 37° C. with or without the Compounds or control solutions. Wells are washed 3 times with buffer A and then incubated with a horseradish peroxidase-conjugated polyclonal anti-fibrinogen antibody (1:1,000 in buffer A; DAKO, Glostrup, Denmark) for 1 h at 22° C. Wells are washed 3 times, 200 μl of a peroxidase substrate [3,3′,5,5′-tetramethylbenzidine (TMB), Sigma-Aldrich] is added, the reaction is terminated after 30 min by acidification with 50 μl 0.5 M H2SO4, and absorbance is determined at 450 nm. For priming experiments the procedure is the same except: 1) αIIbβ3 is allowed to adhere in the presence of either eptifibatide (10 μM), RGDS (10 μM; Rockefeller University Proteomics Resource Center), the Compounds (100 μM), or DMSO (1%); 2) wells are washed 10 times after αIIbβ3 adhesion; and 3) absorbance is determined at 655 nm after 10 min.

purified αIIbβ3 [7] = biological target: T3, purified αIIbβ3; assay: Priming of fibrinogen binding to purified αIIbβ3; settings: eptifibatide 10 μM, RGDS 10 μM, Compounds 100 μM
Procedure: as §2

[8] = biological target: T4, HEK293 cells expressing αIIbβ3 (Homo sapiens, UniProt P05106+P08514); assay: HEK293 cell adhesion to fibrinogen; type: cell-based; settings: compound 100 μM, fibrinogen 50 μg/ml, 2 mM Ca2+/1 mM Mg2+, read-out: inhibition of HEK293 cell adhesion to immobilized fibrinogen
T4 construct: expressed in transfected cells; host or cells: HEK293
T4 sequence (P08514 32-887 limits assumed): as the sequence (P08514 32-887 limits assumed) above
T4 sequence (P08514 891-1039 partner limits assumed): as the sequence (P08514 891-1039 partner limits assumed) above
T4 sequence (P05106 27-788): as the sequence (P05106 27-788) above
Procedure: (§3) Platelet and Cell Adhesion. Platelets are prepared from ACD-anticoagulated blood as previously described. Cells, either CS1 (αVβ3-expressing) or HEK293 (αIIbβ3-expressing) are separated from culture media by centrifugation at 200 g, 4 min. Cells are resuspended in HBMT containing 1 mM MgCl2 (CS1 cells) and/or 2 mM CaCl2 (HEK293 cells). Polystyrene 96-well microtiter plates (Nunc) are coated with either fibrinogen (50 μg/ml), vitronectin (5 μg/ml), or collagen (33 μg/ml, rat tail type 1, Becton Dickson) for 1 h, and blocked with HBMT for at least 1 h. Platelets and cells are treated with compounds or control solutions for 15 min at 37° C. before they are added to the microtiter wells. After adhering for 1 h at either 22° C. (platelets) or 37° C. (cells), non-adherent platelets or cells are removed by washing 3 times with HBMT containing the same ion composition as the buffer used for adhesion. Adherent platelets or cells are quantified by their endogenous acid phosphatase activity on p-nitrophenyl phosphate (pNPP) (1 mg/ml in 0.1 M sodium citrate, 0.1% Triton X-100, pH 5.4). In other experiments, 8-chambered glass coverslips (Nunc) are coated with collagen (33 μg/ml) for 1 h at 22° C. Washed platelets are allowed to adhere for 1 h at 22° C. and the coverslips are stained with the Alexa-488-conjugated β3-specific mAb 7H2. […]

[9] = system: αVβ3-expressing CS1 cells; assay: CS1 cell adhesion to vitronectin; type: cell-based; settings: mAbs 20 μg/ml, compound 100 μM; Mg2+
Procedure: as §3

CCc1nn2c(=O)cc(N3CCNCC3)nc2s1 [Preferred Compound, 2-ethyl-7-(piperazin-1-yl)-5H-[1,3,4]thiadiazolo-[3,2-a]pyrimidin-5-one]
reduction of the initial slope of aggregation [1]: 84%
IC50 (platelets [2]; induced by 5 μM ADP, read-out: IC50, aggregation of platelets in citrated PRP): 13 ± 5 µM
IC50 (platelets [2]; induced by 5 μM TRAP, n=3, read-out: IC50, aggregation of washed platelets): 3.4 ± 0.4 µM
IC50 (platelets [2]; induced by 5 μM TRAP, read-out: IC50, aggregation of platelets in citrated PRP): 29 ± 6 µM
IC50 (platelets [2]; induced by 1 mM arachidonic acid, read-out: IC50, aggregation of platelets in citrated PRP): 8.5 ± 5.7 µM
platelet aggregation in PRP induced by collagen (platelets [2]; compound 100 μM, collagen 2 μg/ml): completely inhibits
later phase of ristocetin-induced aggregation of PRP (platelets [2]; ristocetin 1.8 mg/ml, data not shown): does inhibit
initial slope (initial wave) of ristocetin-induced agglutination/aggregation of PRP (platelets [2]; ristocetin 1.8 mg/ml, mAb 6D1 20 μg/ml): does not inhibit
inhibition of platelet deposition under shear, area occupied by platelets vs DMSO [3]: 87±10%
binding of β3 LIBS-specific mAb AP5 compared with untreated platelets (αIIbβ3): do not differ significantly
binding of β3 LIBS-specific mAb LIBS-1 compared with untreated platelets (αIIbβ3): do not differ significantly
mAb Binding (% of tirofiban), AP5 (β3) (αIIbβ3; resting washed platelets): 26 ± 5.9 % of tirofiban
mAb Binding (% of tirofiban), LIBS-1 (β3) (αIIbβ3; resting washed platelets): 5.7 ± 6.3 % of tirofiban
mAb Binding (% of tirofiban), PMI-1 (αIIb) (αIIbβ3; resting washed platelets): 44 ± 8.7 % of tirofiban
mAb Binding (% of tirofiban), PMI-1 (αIIb) (αIIbβ3; resting washed platelets, listed as 2-ethyl-7-(piperazin-1-yl)-5H-[1,3,4]thiadiazolo-[3,2-a]pyrimidin-5-one): 44 % of tirofiban
IC50 (platelets [4]): 29 ± 2 µM
IC50 [5]: 21 ± 0.3 µM
effect of activating mAb AP5 on fibrinogen binding to purified αIIbβ3 in the presence of the substance (purified αIIbβ3 [6]): does not increase
fibrinogen binding to purified αIIbβ3 in the presence of the substance (purified αIIbβ3 [6]; microtiter plates): blocked
IC50 (purified αIIbβ3 [6]; microtiter plates, n=3): 1.6 ± 0.4 µM
fibrinogen binding after transient exposure of αIIbβ3 (priming), compared to untreated αIIbβ3 (purified αIIbβ3 [7]): does not increase
inhibition at 100 µM [8]: 53 ± 4%
CS1 cell adhesion to immobilized vitronectin [9]: adhere

N=C(N)NCCCC[C@@H]1NC(=O)CCSSC[C@@H](C(N)=O)NC(=O)[C@@H]2CCCN2C(=O)[C@H](Cc2c[nH]c3ccccc23)NC(=O)[C@H](CC(=O)O)NC(=O)CNC1=O [eptifibatide] ([Mpa][hArg]GDWPC-NH2; disulfide 1-7)
fibrinogen binding after transient exposure of αIIbβ3 (priming), compared to untreated αIIbβ3 (purified αIIbβ3 [7]): 150±31%

CCCCS(=O)(=O)N[C@@H](Cc1ccc(OCCCCC2CCNCC2)cc1)C(=O)O [tirofiban, reference compound]
inhibition of platelet deposition under shear, area occupied by platelets vs DMSO [3]: 99±1%
effect of activating mAb AP5 on fibrinogen binding to purified αIIbβ3 in the presence of the substance (purified αIIbβ3 [6]): does not increase
fibrinogen binding to purified αIIbβ3 in the presence of the substance (purified αIIbβ3 [6]; microtiter plates): blocked

RGDS
fibrinogen binding after transient exposure of αIIbβ3 (priming), compared to untreated αIIbβ3 (purified αIIbβ3 [7]): 130±7%
